From patent US8710073B2, “Anti-infective derivatives, method for the production thereof, pharmaceutical compositions containing same and uses of said derivatives in treatment” (Centre National de la Recherche Scientifique (C.N.R.S.), priority 2008, dated 2014) come the findings set out here.

One test has as its target InhA enoylreductase (Mycobacterium tuberculosis, UniProt P9WGR1). Nature of the test: InhA enoylreductase activity inhibition test (NADH disappearance at 340 nm). Type of test: biochemical. The following applies: read-out: InhA inhibition percentage; for inhibition at 10 µM: inhibitor concentration 10 μM, preincubation time 5 min. The procedure: The InhA protein was expressed in E. coli after cloning the inhA gene in a plasmidic vector of the pET type. Growing the resulting strain and inducing expression of the inhA gene with 1 mM IPTG (isopropyl β-D-thiogalactoside) leads to the production of water-soluble InhA protein at approximately 28.5 KDa (28,368 Da) (monomeric) which is purified by standard protein purification techniques. The enzyme is present in the form of a tetramer in solution and is kept in 50 mM Hepes buffer, 50% glycerol at −20° C.
The InhA enoylreductase activity is monitored by UV spectrometry, by monitoring the disappearance of the signal of the reduced cofactor NADH at 340 nm as a function of time. The percentage inhibition is calculated by subtracting from 100 the ratio of the initial speeds (V) measured during kinetics with and without inhibitor, multiplied by 100:% inhibition=100−(Vinhib/Vblank*100). The initial speed is measured by drawing the tangent to the curve DO=f(time) at time zero.
The enzymatic reaction is carried out in a final volume of 100 μl (in a quartz vessel, optical path 1 cm). The absorption of each reaction mixture is determined with a UVIKON 293 spectrophotometer (Bio-Tek Kontron Instruments) connected to a thermostatically controlled bath which makes it possible to maintain the temperature of the vessel at 25° C. A baseline is produced during preincubation immediately before measurements begin. The measurements are carried out over 3 min after a preincubation of 5 min or 2 h.
The preincubation is carried out in 90 μl (total volume) of a solution of PIPES buffer 30 mM, NaCl 150 mM, pH=6.8 at 25° C. containing 100 nM of InhA, 100 μM, 20 μM or 10 μM of the compound to be tested (or 500 nM of the pool of INH-NAD adducts constituting the control inhibitors) and 200 μM of NADH. After 5 min or 2 h of preincubation, the addition of 35 μM of the substrate 2-trans-decenoyl-CoA initiates the reaction. […]

Test [1] concerns Corynebacterium glutamicum. Put plainly: Growth inhibition of Corynebacterium glutamicum, MTT test. On the technique in general: Formazan colour is commonly taken as a measure of viable cells.
Method: The Corynebacterium glutamicum strain is cultivated in a BHI (Brain-Heart Infusion) medium at 30° C. with stirring at 200 rpm. The DO of the culture is measured directly and set to a value of 0.002-0.003 by dilution in the LB culture medium. C. glutamicum also grows in the LB medium, and this is used instead of BHI, which is strongly coloured and interferes with the DO reading at 570 nm.
The stock solutions are prepared in DMSO at a concentration 100 times greater than the highest concentration to be tested.
The test is carried out in the same way as the test on M. smegmatis.
The tests are carried out on 96-well NUNC microplates (Merck-eurolab). All the concentrations were tested at least twice.
Each well contains 100 μl of compound in solution in the culture medium (LB with 1% final DMSO). Subsequently, 100 μl of bacterial suspension having DO 0.002 at 650 nm are added.
The plate is sealed using parafilm and incubated at 30° C. for C. glutamicum. After two hours of incubation, 50 μl of a 1 mg/ml solution of tetrazolium salt (MTT) are added to each well. After one hour of incubation at 30° C. for C. glutamicum, 100 μl of lysis buffer are added to each well and the plate is left with stirring at ambient temperature until the solution is fully homogeneous.
The optical density is measured at 570 nm with a μQuant 96-well microplate spectrophotometer, Bio-tek Instruments, Inc.

Chain of InhA enoylreductase (P9WGR1 whole entry, looked up): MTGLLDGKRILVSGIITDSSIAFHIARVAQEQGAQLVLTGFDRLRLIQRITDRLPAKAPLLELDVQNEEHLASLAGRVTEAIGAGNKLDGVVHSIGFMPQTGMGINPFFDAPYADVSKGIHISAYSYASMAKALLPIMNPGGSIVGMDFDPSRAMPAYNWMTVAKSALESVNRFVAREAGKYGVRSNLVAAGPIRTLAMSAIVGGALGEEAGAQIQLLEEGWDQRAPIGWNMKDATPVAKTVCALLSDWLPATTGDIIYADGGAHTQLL

As usually defined, the inhibition is the drop in the measured response relative to a control, in per cent. For the compound `CCCCCCCCCCCCOc1cccc(C2(O)NC(=O)c3cnccc32)c1` (centres unmarked) [Example 2, 1-(3-dodecyloxyphenyl)-1-hydroxy-1,2-dihydropyrrolo[3,4-c]pyridin-3-one], the inhibition at 100 µM at InhA enoylreductase (inhibitor concentration 100 μM, preincubation time 2 h (*)) was 80%.
For `CCCCCCCCCCCCc1cccc(C2(O)NC(=O)c3c[n+](CC(=O)OCC)ccc32)c1` (centres unmarked) [Example 3, 1-(3-dodecylphenyl)-5-[2-(ethyloxy)-2-oxoethyl]-1-hydroxy-3-oxo-1,2-dihydropyrrolo[3,4-c]pyridinium bromide], on InhA enoylreductase, the inhibition at 10 µM came to 19%.
On the same count and under the same terms, then `CCCCCCCCCCCCc1cccc(C(=O)C2C=CN(CC(=O)OCC)C=C2C(N)=O)c1` (centres unmarked) [Example 4, ethy 3-aminocarbonyl-[4-(3-dodecylbenzoyl)-1,4-dihydro-pyridin-1-yl]acetate], with 25%.
Consider `NNC(=O)c1ccncc1` [Isoniazide], for which the IC50 in test [1] (Corynebacterium glutamicum, read-out: CI50 (concentration corresponding to 50% inhibition) on the bacterial strain C. glutamicum) is greater than 5 mM. Besides, the “activity on C. glutamicum” value in test [1] (at 5 mM) is listed as “does not exhibit any activity”.
